From ChEMBL document CHEMBL1142367, “1H-Pyrazolo[3,4-g]hexahydro-isoquinolines as selective glucocorticoid receptor antagonists with high functional activity” (Bioorg Med Chem Lett, 2008)

What was measured:
Glucocorticoid receptor [1] = target: T1, Glucocorticoid receptor (Homo sapiens, UniProt P04150); assay: Displacement of [3H]dexamethasone from human recombinant GR
T1 sequence (P04150 whole entry): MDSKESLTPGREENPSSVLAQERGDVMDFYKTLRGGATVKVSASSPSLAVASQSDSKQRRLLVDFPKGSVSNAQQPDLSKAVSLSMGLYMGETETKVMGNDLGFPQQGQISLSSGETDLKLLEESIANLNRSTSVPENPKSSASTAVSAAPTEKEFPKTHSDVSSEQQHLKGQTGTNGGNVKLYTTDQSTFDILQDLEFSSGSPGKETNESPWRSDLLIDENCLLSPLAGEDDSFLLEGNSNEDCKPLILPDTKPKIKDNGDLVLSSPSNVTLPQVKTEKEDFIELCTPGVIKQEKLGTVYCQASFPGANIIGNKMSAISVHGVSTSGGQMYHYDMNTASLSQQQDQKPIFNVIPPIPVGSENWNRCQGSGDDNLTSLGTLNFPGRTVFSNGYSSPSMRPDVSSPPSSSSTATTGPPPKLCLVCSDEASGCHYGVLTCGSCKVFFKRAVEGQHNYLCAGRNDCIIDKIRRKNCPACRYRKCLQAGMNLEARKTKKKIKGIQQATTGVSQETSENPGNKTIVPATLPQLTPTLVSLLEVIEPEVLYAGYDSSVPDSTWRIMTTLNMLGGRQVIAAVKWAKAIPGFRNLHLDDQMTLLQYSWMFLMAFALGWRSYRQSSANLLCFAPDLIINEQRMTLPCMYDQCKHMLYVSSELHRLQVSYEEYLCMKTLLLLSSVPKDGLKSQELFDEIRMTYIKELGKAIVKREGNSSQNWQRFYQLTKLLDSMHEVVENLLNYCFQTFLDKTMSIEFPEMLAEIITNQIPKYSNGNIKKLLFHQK

[2] = Metabolic stability in human liver microsomes after 30 mins; type: ADME, Microsome; conditions: read-out: Stability
Glucocorticoid receptor [3] = target: T1, Glucocorticoid receptor; assay: Antagonist activity at GR in SW1353/MMTV5 cells assessed as inhibition of dexamethasone-induced luciferase expression; type: functional, cell-based
[4] = Oral bioavailability in rat; type: ADME, organism-based; conditions: in vivo
[5] = Half life in rat at 5 mg/kg, po; type: ADME, organism-based; parameters: dose 5 mg/kg, route oral; conditions: in vivo
[6] = Ratio of drug level in brain to plasma in rat at 5 mg/kg, po; type: ADME, organism-based; parameters: dose 5 mg/kg, route oral; conditions: read-out: BPR
[7] = Oral bioavailability in rat at 5 mg/kg; type: ADME, organism-based; conditions: in vivo
Rattus norvegicus = assay: AUC in rat at 5 mg/kg, po; type: ADME, organism-based, Plasma; parameters: dose 5 mg/kg, route oral; conditions: in vivo
[8] = Cmax in rat at 5 mg/kg, po; type: ADME, organism-based; parameters: dose 5 mg/kg, route oral; conditions: in vivo
[9] = Half life in dog at […], po; type: ADME, organism-based, Canis lupus familiaris; parameters: dose 2.5 mg/kg, route oral; conditions: in vivo
[10] = Oral bioavailability in dog at […]; type: ADME, organism-based, Canis lupus familiaris; conditions: in vivo
Canis familiaris = assay: AUC in dog at […], po; type: ADME, organism-based, Canis lupus familiaris, Plasma; parameters: dose 2.5 mg/kg, route oral; conditions: in vivo
[11] = Cmax in dog at […], po; type: ADME, organism-based, Canis lupus familiaris; parameters: dose 2.5 mg/kg, route oral; conditions: in vivo

SMILES | Ki (Glucocorticoid receptor [1]) [nM] | Ki (Glucocorticoid receptor [3]) [nM] | bioavailability [4] [%] | also measured
COCCOC[C@]12Cc3cnn(-c4ccc(F)cc4)c3C=C1CCN(S(=O)(=O)c1ccc(F)cc1)C2 | 0.6 | 5.2 |  | remaining at 0.5 h [2]: 7%
CCNC[C@]12Cc3cnn(-c4ccc(F)cc4)c3C=C1CCN(S(=O)(=O)c1ccc(C(C)(C)C)cc1)C2 | 2.4 | 16 | 0 | 
COC[C@]12Cc3cnn(-c4ccc(F)cc4)c3C=C1CCN(S(=O)(=O)c1ccc(C(C)(C)C)cc1)C2 | 0.8 | 7.7 |  | half-life [5]: 2.9 h; Kp [6]: 0.1; bioavailability [7]: 11%; AUC (Rattus norvegicus): 0.43 µg/h/mL; Cmax [8]: 94 ng/mL
COCCOC[C@]12Cc3cnn(-c4ccc(F)cc4)c3C=C1CCN(S(=O)(=O)c1ccc(C)cc1)C2 |  |  | 8 | 
COC[C@]12Cc3cnn(-c4ccc(F)cc4)c3C=C1CCN(S(=O)(=O)c1ccccc1)C2 | 1 | 20 |  | half-life [9]: 5.9 h; half-life [5]: 3.6 h; Kp [6]: 0.75; bioavailability [7]: 3%; bioavailability [10]: 20%; AUC (Rattus norvegicus): 0.112 µg/h/mL; Cmax [8]: 23 ng/mL; AUC (Canis familiaris): 0.894 µg/h/mL; Cmax [11]: 258 ng/mL
COC[C@]12Cc3cnn(-c4ccc(F)cc4)c3C=C1CCN(S(=O)(=O)c1ccc(F)cc1)C2 | 1.4 | 33 |  | half-life [9]: 4.2 h; half-life [5]: 2.1 h; Kp [6]: 1.1; bioavailability [7]: 22%; bioavailability [10]: 54%; AUC (Rattus norvegicus): 0.621 µg/h/mL; remaining at 0.5 h [2]: 57%; Cmax [8]: 106 ng/mL; AUC (Canis familiaris): 1.676 µg/h/mL; Cmax [11]: 381 ng/mL
CC(C)(C)c1ccc(S(=O)(=O)N2CCC3=Cc4c(cnn4-c4ccc(F)cc4)C[C@]3(CN3CCC3)C2)cc1 | 1.4 | 11 | 4 | 
CC(C)(C)c1ccc(S(=O)(=O)N2CCC3=Cc4c(cnn4-c4ccc(F)cc4)C[C@]3(C)C2)cc1 | 1.2 | 53 |  | half-life [9]: 4.2 h; half-life [5]: 2.7 h; Kp [6]: 0.07; bioavailability [7]: 13%; bioavailability [10]: 26%; AUC (Rattus norvegicus): 1.009 µg/h/mL; Cmax [8]: 199 ng/mL; AUC (Canis familiaris): 1.684 µg/h/mL; Cmax [11]: 524 ng/mL
COC[C@]12Cc3cnn(-c4ccc(F)cc4)c3C=C1CCN(S(=O)(=O)c1ccc(C(F)(F)F)cc1)C2 | 0.8 | 28 |  | half-life [9]: 6.7 h; half-life [5]: 3.4 h; Kp [6]: 0.83; bioavailability [7]: 16%; bioavailability [10]: 58%; AUC (Rattus norvegicus): 0.966 µg/h/mL; Cmax [8]: 163 ng/mL; AUC (Canis familiaris): 3.638 µg/h/mL; Cmax [11]: 647 ng/mL
CC(C)(C)c1ccc(S(=O)(=O)N2CCC3=Cc4c(cnn4-c4ccc(F)cc4)C[C@]3(CN3CCCC3)C2)cc1 | 1.1 | 3.4 | 2 | 
COCCOC[C@]12Cc3cnn(-c4ccc(F)cc4)c3C=C1CCN(S(=O)(=O)c1ccc(C(C)(C)C)cc1)C2 | 0.7 | 0.6 | 0 | 
CC(C)(C)c1ccc(S(=O)(=O)N2CCC3=Cc4c(cnn4-c4ccc(F)cc4)C[C@]3(CN3CCOCC3)C2)cc1 | 0.9 | 7.1 |  | half-life [5]: 2 h; Kp [6]: 0.1; bioavailability [7]: 10%; AUC (Rattus norvegicus): 0.302 µg/h/mL; Cmax [8]: 75 ng/mL
CC(C)(C)c1ccc(S(=O)(=O)N2CCC3=Cc4c(cnn4-c4ccc(F)cc4)C[C@]3(COCCC#N)C2)cc1 | 0.8 | 5.1 | 2 | 
CN(C)C[C@]12Cc3cnn(-c4ccc(F)cc4)c3C=C1CCN(S(=O)(=O)c1ccc(F)cc1)C2 | 2.6 | 29 |  | 
O=S(=O)(c1ccc(F)cc1)N1CCC2=Cc3c(cnn3-c3ccc(F)cc3)CC2(Cc2ccc(F)cc2)C1 (racemic) | 1.4 | 26 |  | 
CN(C)C[C@]12Cc3cnn(-c4ccc(F)cc4)c3C=C1CCN(S(=O)(=O)c1ccc(C(C)(C)C)cc1)C2 | 1.2 | 6.9 | 0 | 
O=S(=O)(N1CCOCC1)N1CCC2=Cc3c(cnn3-c3ccc(F)cc3)CC2(Cc2ccc(F)cc2)C1 (racemic) | 26 | > 1000 |  | 
O=S(=O)(c1ccccc1)N1CCC2=Cc3c(cnn3-c3ccc(F)cc3)C[C@]2(CN2CCCCC2)C1 | 0.8 | 5.8 |  | 
Cc1ccc(S(=O)(=O)N2CCC3=Cc4c(cnn4-c4ccc(F)cc4)C[C@]3(C)C2)cc1 | 2.3 | 96 |  | 
CN(C)CCNC[C@]12Cc3cnn(-c4ccc(F)cc4)c3C=C1CCN(S(=O)(=O)c1ccc(C(C)(C)C)cc1)C2 | 3.8 | 60 |  | 
COCCNC[C@]12Cc3cnn(-c4ccc(F)cc4)c3C=C1CCN(S(=O)(=O)c1ccc(C(C)(C)C)cc1)C2 | 1 | 3.1 | 0 | 
CC(C)(C)c1ccc(S(=O)(=O)N2CCC3=Cc4c(cnn4-c4ccc(F)cc4)C[C@]3(COCCN3CCCCC3)C2)cc1 | 8.6 | 77 |  | 
C[C@]12Cc3cnn(-c4ccc(F)cc4)c3C=C1CCN(S(=O)(=O)c1ccc(N)cc1)C2 | 17 | > 1000 |  | 
C[C@]12Cc3cnn(-c4ccc(F)cc4)c3C=C1CCN(S(=O)(=O)c1ccc(C(F)(F)F)cc1)C2 | 3.4 | 78 |  | 
C=CCNC[C@]12Cc3cnn(-c4ccc(F)cc4)c3C=C1CCN(S(=O)(=O)c1ccc(C(C)(C)C)cc1)C2 | 0.9 | 11 |  | 
CC(C)(C)c1ccc(S(=O)(=O)N2CCC3=Cc4c(cnn4-c4ccc(F)cc4)C[C@]3(Cc3ccccc3)C2)cc1 | 1.4 | 4.7 |  | 
Cc1ccc(S(=O)(=O)N2CCC3=Cc4c(cnn4-c4ccc(F)cc4)CC3(Cc3ccc(F)cc3)C2)cc1 (racemic) | 1.5 | 17 |  | 
CC(C)NC[C@]12Cc3cnn(-c4ccc(F)cc4)c3C=C1CCN(S(=O)(=O)c1ccc(C(C)(C)C)cc1)C2 | 2.1 | 17 | 5 | 
